Assay results from patent publication US20210101881A1 (Ancureall Pharmaceutical (Shanghai) Co., Ltd., priority 2018, published 2021).
Read-outs that look alike come from different tables or passages of the source.

Key:
MOLM13 cells = assay: Growth inhibition of CDK9-positive cell line MOLM13 in vitro (CCK8/MTT assay); type: cell-based, human; conditions: Homo sapiens
CDK9/CyclinK kinase = molecular target: T1, CDK9/CyclinK kinase (Homo sapiens, UniProt P50750); assay: CDK9 protein kinase activity, ADP-Glo CDK9/CyclinK kinase detection kit; type: biochemical; conditions: read-out: IC50 of the compound for inhibiting CDK9 protein kinase activity, CDK9/CyclinK kinase
T1 construct: purchased Promega Corporation V4105
T1 sequence (P50750 whole entry): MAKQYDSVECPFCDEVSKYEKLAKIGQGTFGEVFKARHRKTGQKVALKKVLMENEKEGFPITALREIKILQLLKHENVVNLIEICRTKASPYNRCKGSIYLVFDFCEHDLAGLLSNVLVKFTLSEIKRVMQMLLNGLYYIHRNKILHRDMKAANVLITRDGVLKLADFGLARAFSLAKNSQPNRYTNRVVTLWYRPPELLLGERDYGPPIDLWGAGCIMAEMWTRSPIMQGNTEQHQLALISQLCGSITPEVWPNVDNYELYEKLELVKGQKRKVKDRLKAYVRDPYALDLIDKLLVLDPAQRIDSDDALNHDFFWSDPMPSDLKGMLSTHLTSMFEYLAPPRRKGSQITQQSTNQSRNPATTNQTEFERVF
T1 sequence (O75909 whole entry partner): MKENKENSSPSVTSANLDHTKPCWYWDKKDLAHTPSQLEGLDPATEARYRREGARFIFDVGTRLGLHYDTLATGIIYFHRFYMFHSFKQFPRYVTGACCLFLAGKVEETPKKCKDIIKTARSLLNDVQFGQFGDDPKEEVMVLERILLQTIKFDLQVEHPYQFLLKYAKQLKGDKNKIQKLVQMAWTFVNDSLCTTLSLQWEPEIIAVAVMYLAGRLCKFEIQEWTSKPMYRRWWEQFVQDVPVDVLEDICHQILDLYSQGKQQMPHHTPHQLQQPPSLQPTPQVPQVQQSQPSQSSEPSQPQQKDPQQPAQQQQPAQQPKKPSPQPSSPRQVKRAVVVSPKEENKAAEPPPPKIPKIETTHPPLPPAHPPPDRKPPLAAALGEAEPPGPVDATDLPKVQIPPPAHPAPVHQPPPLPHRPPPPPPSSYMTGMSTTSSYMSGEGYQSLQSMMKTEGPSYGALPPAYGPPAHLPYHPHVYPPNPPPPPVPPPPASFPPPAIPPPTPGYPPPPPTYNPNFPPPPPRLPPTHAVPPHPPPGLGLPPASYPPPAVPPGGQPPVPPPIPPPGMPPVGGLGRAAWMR
Procedure: Measurement of CDK9 Protein Kinase Activity
The present compound was dissolved in DMSO (Sigma Aldrich), and the initial concentration of the compound was 1000 nM. A two-fold serial dilution was carried out. The specific operation of CDK9 kinase activity determination was carried out according to the ADP-Go™ CDK9/CyclinK kinase detection experimental procedure. […] Each test sample was tested in duplicate, and the test was repeated once. The inhibitory activity (IC50) of the compound on CDK9 protein kinase was calculated from the dose-inhibition curve of the compound.

[1] = MOLM-13, read-out: IC50 of the compound for inhibiting cell growth, MOLM13 cells
[2] = MOLM-13, MOLM13 cells, cultured 3 to 6 days, CCK8, read-out: IC50 of the compound for inhibiting cell growth, MOLM13 cells

Row | Compound | IC50 (MOLM13 cells; [1]) [nM] | IC50 (CDK9/CyclinK kinase) [nM] | IC50 (MOLM13 cells; [2]) [nM]
1 | Cc1cc(Nc2ncc(F)c(-n3cc(C(N)=O)c4ccccc43)n2)ccc1N1CCNCC1 [Compound 39, 1-[5-fluoro-2-(3-methyl-4-piperazin-1-yl-phenylamino)-pyrimidin-4-yl]-1H-indole-3-carboxamide] | < 1 | 1 to 10 | 
2 | Cc1cc(Nc2ncc(Cl)c(-n3cc(C(N)=O)c4ccccc43)n2)ccc1N1CCNCC1 [Compound 42, 1-[5-chloro-2-(3-methyl-4-piperazin-1-yl-phenylamino)-pyrimidin-4-yl]-1H-indole-3-carboxamide] |  | 1 to 10 | < 1
3 | Cc1cc(Nc2ncc(F)c(-n3cc(C(N)=O)c4ccccc43)n2)ccc1N1CCN(C)CC1 [Compound 55, 1-{5-fluoro-2-[3-methyl-4-(4-methyl-piperazin-1-yl)-phenylamino]-pyrimidin-4-yl}-1H-indole-3-carboxamide] |  | 1 to 10 | < 1
4 | Cc1cc(Nc2ncc(Cl)c(-n3cc(C(N)=O)c4ccccc43)n2)ccc1N1CCN(C)CC1 [Compound 56, 1-{5-chloro-2-[3-methyl-4-(4-methyl-piperazin-1-yl)-phenylamino]-pyrimidin-4-yl}-1H-indole-3-carboxamide] |  | 1 to 10 | < 1
5 | Cc1cc(Nc2ncc(F)c(-n3cc(C(N)=O)c4ccccc43)n2)ccc1N(C)CCN(C)C [Compound 88, 1-(2-{4-[(2-dimethylamino-ethyl)-methyl-amino]-3-methyl-phenylamino}-5-fluoro-pyrimidin-4-yl)-1H-indole-3-carboxamide] |  | 10 to 100 | < 1
6 | Cc1cc(Nc2ncc(Cl)c(-n3cc(C(N)=O)c4ccccc43)n2)ccc1N(C)CCN(C)C [Compound 89, 1-(5-chloro-2-{4-[(2-dimethylamino-ethyl)-methyl-amino]-3-methyl-phenylamino}-pyrimidin-4-yl)-1H-indole-3-carboxamide] |  | 10 to 100 | < 1
7 | CN1CCN(c2cccc(Nc3ncc(F)c(-n4cc(C(N)=O)c5ccccc54)n3)c2)CC1 [Compound 115, 1-{5-fluoro-2-[3-(4-methyl-piperazin-1-yl)-phenylamino]-pyrimidin-4-yl}-1H-indole-3-carboxamide] | < 1 | < 1 | 
8 | CCC(C)N1CCN(c2cccc(Nc3ncc(F)c(-n4cc(C(N)=O)c5ccccc54)n3)c2)CC1 (stereo not shown) [Compound 145, 1-{2-[3-(4-sec-butyl-piperazin-1-yl)-phenylamino]-5-fluoro-pyrimidin-4-yl}-1H-indole-3-carboxamide] |  |  | 10 to 100
9 | NC(=O)c1cn(-c2nc(Nc3cccc(N4CCNCC4)c3)ncc2F)c2ccccc12 [Compound 146] |  |  | 10 to 100
10 | CC(C)(C)N1CCN(c2cccc(Nc3ncc(F)c(-n4cc(C(N)=O)c5ccccc54)n3)c2)CC1 [Compound 147, 1-{2-[3-(4-tert-butyl-piperazin-1-yl)-phenylamino]-5-fluoro-pyrimidin-4-yl}-1H-indole-3-carboxamide] |  |  | < 1
11 | CN1CCC(N2CCN(c3cccc(Nc4ncc(F)c(-n5cc(C(N)=O)c6ccccc65)n4)c3)CC2)CC1 [Compound 148, 1-(5-fluoro-2-{3-[4-(1-methyl-piperidin-4-yl)-piperazin-1-yl]-phenylamino}-pyrimidin-4-yl)-1H-indole-3-carboxamide] |  |  | 1 to 10
12 | COc1ccc2c(c1)c(C(N)=O)cn2-c1nc(Nc2cccc(N3CCN(C4CCOCC4)CC3)c2)ncc1F [Compound 149, 1-(5-fluoro-2-{3-[4-(tetrahydro-pyran-4-yl)-piperazin-1-yl]-phenylamino}-pyrimidin-4-yl)-5-methoxy-1H-indole-3-carboxamide] |  |  | 1 to 10
13 | NC(=O)c1cn(-c2nc(Nc3cccc(N4CCN(C5CCOC5)CC4)c3)ncc2F)c2ccccc12 (stereo not shown) [Compound 150, 1-(5-fluoro-2-{3-[4-(tetrahydro-furan-3-yl)-piperazin-1-yl]-phenylamino}-pyrimidin-4-yl)-1H-indole-3-carboxamide] |  |  | 1 to 10
14 | COc1ccc2c(c1)c(C(N)=O)cn2-c1nc(Nc2cccc(N3CCN(C4CCOC4)CC3)c2)ncc1F (stereo not shown) [Compound 151, 1-(5-fluoro-2-{3-[4-(tetrahydro-furan-3-yl)-piperazin-1-yl]-phenylamino}-pyrimidin-4-yl)-5-methoxy-1H-indole-3-carboxamide] |  |  | 1 to 10
15 | NC(=O)c1cn(-c2nc(Nc3cccc(-n4cccn4)c3)ncc2F)c2ccccc12 [Compound 153, 1-[5-fluoro-2-(3-pyrazol-1-yl-phenylamino)-pyrimidin-4-yl]-1H-indole-3-carboxamide] |  |  | 100 to 1000
16 | Cc1cnn(-c2cccc(Nc3ncc(F)c(-n4cc(C(N)=O)c5ccccc54)n3)c2)c1 [Compound 154, 1-{5-fluoro-2-[3-(4-methyl-pyrazol-1-yl)-phenylamino]-pyrimidin-4-yl}-1H-indole-3-carboxamide] |  |  | 100 to 1000

Row | Compound | IC50 (MOLM13 cells; [1]) [nM] | IC50 (CDK9/CyclinK kinase) [nM] | IC50 (MOLM13 cells; [2]) [nM]
17 | CC(O)CN1CCN(c2cccc(Nc3ncc(F)c(-n4cc(C(N)=O)c5ccccc54)n3)c2)CC1 (stereo not shown) [Compound 155, 1-(5-fluoro-2-{3-[4-(2-hydroxy-propyl)-piperazin-1-yl]-phenylamino}-pyrimidin-4-yl)-1H-indole-3-carboxamide] |  |  | 1 to 10
18 | NC(=O)c1cn(-c2nc(Nc3cccc(N4CCN(CC5CO5)CC4)c3)ncc2F)c2ccccc12 (stereo not shown) [Compound 156, 1-{5-fluoro-2-[3-(4-oxiranylmethyl-piperazin-1-yl)-phenylamino]-pyrimidin-4-yl}-1H-indole-3-carboxamide] |  |  | 10 to 100
19 | NC(=O)c1cn(-c2nc(Nc3cccc(N4CCN(CC5CCOCC5)CC4)c3)ncc2F)c2ccccc12 [Compound 157, 1-(5-fluoro-2-{3-[4-(tetrahydro-pyran-4-ylmethyl)-piperazin-1-yl]-phenylamino}-pyrimidin-4-yl)-1H-indole-3-carboxamide] |  |  | 10 to 100
20 | NC(=O)c1cn(-c2nc(Nc3cccc(N4CCN(C(=O)C5CCCO5)CC4)c3)ncc2F)c2ccccc12 (stereo not shown) [Compound 158, 1-(5-fluoro-2-{3-[4-(tetrahydro-furan-2-carbonyl)-piperazin-1-yl]-phenylamino}-pyrimidin-4-yl)-1H-indole-3-carboxamide] |  |  | 10 to 100
21 | COc1ccc2c(c1)c(C(N)=O)cn2-c1nc(Nc2cccc(N3CCN(C(C)C)CC3)c2)ncc1F [Compound 159, 1-{5-fluoro-2-[3-(4-isopropyl-piperazin-1-yl)-phenylamino]-pyrimidin-4-yl}-5-methoxy-1H-indole-3-carboxamide] |  |  | 1 to 10
22 | NC(=O)c1cn(-c2nc(Nc3cccc(N4CCN(CC5CCCO5)CC4)c3)ncc2F)c2ccccc12 (stereo not shown) [Compound 160, 1-(5-fluoro-2-{3-[4-(tetrahydro-furan-2-ylmethyl)-piperazin-1-yl]-phenylamino}-pyrimidin-4-yl)-1H-indole-3-carboxamide] |  |  | 10 to 100
23 | CCN1CCN(c2cccc(Nc3ncc(F)c(-n4cc(C(N)=O)c5cc(N)ccc54)n3)c2)CC1 [Compound 162, 5-amino-1-{2-[3-(4-ethyl-piperazin-1-yl)-phenylamino]-5-fluoro-pyrimidin-4-yl}-1H-indole-3-carboxamide] |  |  | 1 to 10
24 | CCN1CCN(c2cccc(Nc3ncc(F)c(-n4cc(C(N)=O)c5cc(O)ccc54)n3)c2)CC1 [Compound 163, 1-{2-[3-(4-ethyl-piperazin-1-yl)-phenylamino]-5-fluoro-pyrimidin-4-yl}-5-hydroxy-1H-indole-3-carboxamide] |  | < 1 | < 1
25 | CCN1CCN(c2cccc(Nc3ncc(F)c(-n4cc(C(N)=O)c5cc(OCCOC)ccc54)n3)c2)CC1 [Compound 164, 1-{2-[3-(4-ethyl-piperazin-1-yl)-phenylamino]-5-fluoro-pyrimidin-4-yl}-5-(2-methoxy-ethoxy)-1H-indole-3-carboxamide] |  |  | 1 to 10
26 | CC(=O)N1CCN(c2cccc(Nc3ncc(F)c(-n4cc(C(N)=O)c5ccccc54)n3)c2)CC1 [Compound 165, 1-{2-[3-(4-acetyl-piperazin-1-yl)-phenylamino]-5-fluoro-pyrimidin-4-yl}-1H-indole-3-carboxamide] |  |  | 10 to 100
27 | NC(=O)c1cn(-c2nc(Nc3cccc(N4CCN(C(=O)C5CCOCC5)CC4)c3)ncc2F)c2ccccc12 [Compound 166, 1-(5-Fluoro-2-{3-[4-(tetrahydro-pyran-4-carbonyl)-piperazin-1-yl]-phenylamino}-pyrimidin-4-yl)-1H-indole-3-carboxamide] |  |  | 10 to 100
28 | CCN1CCN(c2cccc(Nc3ncc(F)c(-n4cc(C(N)=O)c5cc(OCCN6CCOCC6)ccc54)n3)c2)CC1 [Compound 168, 1-{2-[3-(4-ethyl-piperazin-1-yl)-phenylamino]-5-fluoro-pyrimidin-4-yl}-5-(2-morpholin-4-yl-ethoxy)-1H-indole-3-carboxamide] |  |  | 10 to 100
29 | NC(=O)c1cn(-c2nc(Nc3cccc(N4CCN(C(=O)C5CCCN5)CC4)c3)ncc2F)c2ccccc12 (stereo not shown) [Compound 169, 1-(5-fluoro-2-{3-[4-(pyrrolidin-2-carbonyl)-1-piperazin-1-yl]-phenylamino}-pyrimidin-4-yl)-1H-indole-3-carboxamide] |  |  | 1 to 10
30 | NC(=O)c1cn(-c2nc(Nc3cccc(N4CCN(C(=O)C5CCOC5)CC4)c3)ncc2F)c2ccccc12 (stereo not shown) [Compound 170, 1-(5-fluoro-2-{3-[4-(tetrahydro-furan-3-carbonyl)-piperazin-1-yl]-phenylamino}-pyrimidin-4-yl)-1H-indole-3-carboxamide] |  |  | 1 to 10
31 | NC(=O)c1cn(-c2nc(Nc3cccc(N4CCN(C(=O)C5CCCC5)CC4)c3)ncc2F)c2ccccc12 [Compound 171] |  |  | 10 to 100
32 | CNC(=O)N1CCN(c2cccc(Nc3ncc(F)c(-n4cc(C(N)=O)c5ccccc54)n3)c2)CC1 [Compound 172, 1-{5-fluoro-2-[3-(4-methylcarbamoyl-piperazin-1-yl)-phenylamino]-pyrimidin-4-yl}-1H-indole-3-carboxamide] |  |  | 10 to 100
